Reference: patent US5189169A (priority 1991, dated 1993)
Several values for one entry are separate records, joined by “and”; a condition that tells them apart may be missing. Identical values can stand only once.

How the values were obtained:
[1] = system: three broadleaf weeds (morning glory, mustard, velvetleaf); set-up: species or system Ipomoea purpurea, Brassica kaber, Abutilon theophrasti; conditions: in vivo
[2] = system: yellow nutsedge; set-up: species or system Cyperus esculentus; conditions: in vivo
[3] = system: three broadleaf weeds (morning glory, mustard, velvetleaf); set-up: species or system Ipomoea purpurea, Brassica kaber, Abutilon theophrasti; conditions: in vivo; remark: listed apart in the source
[4] = system: yellow nutsedge; set-up: species or system Cyperus esculentus; conditions: in vivo; remark: listed apart in the source
[5] = system: three grassy weeds (wild oat, watergrass, foxtail); set-up: species or system Avena fatua, Echinochloa crusgalli, Setaria viridis; conditions: in vivo
[6] = system: three grassy weeds (wild oat, watergrass, foxtail); set-up: species or system Avena fatua, Echinochloa crusgalli, Setaria viridis; conditions: in vivo; remark: listed apart in the source
[7] = system: three broadleaf weeds: wild mustard, redroot pigweed and curly dock; experiment: Pre-emergence herbicidal activity, broadleaf weeds (Table III); type: in vivo, Brassica kaber, Amaranthus retroflexus, Rumex crispus; conditions: 2.24 kg/ha, 2-3 weeks after treatment
Experimental: (§1) The herbicidal effect was observed by comparing the extent of weed control in test flats treated with the compounds against that occurring in similar non-treated control flats. All were applied at 3.57 lb/A (4 kg/ha) to pre-emergence and post-emergence screening flats. An 80 gal/A (748.3 1/ha) spray volume was utilized. Post-emergence flats were seeded 12 days prior to treatment. Pre-emergence flats were seeded one day prior to treatment. Overhead watering of pre-emergence flats and soil surface watering of post-emergence flats, so as to avoid wetting the foliage, were carried out for the duration of the test.
(§2) Weed seeds were planted in a flat at a seed depth of 0.5 inch (1.3 cm). Soil for flats was prepared using loam soil fortified with 17-17-17 fertilizer (N-P2 O5 -K2 O on a weight basis) and Captan 80W fungicide. The test weeds were as follows:
(§3) The spray solutions were prepared by dissolving 240 mg of test compound in 20 ml of acetone containing 1% polyoxyethylene sorbitan monolaurate emulsifier, then adding 20 ml of water to the resulting solution. The spray solutions were applied using a linear spray table. Pre-emergence flats are raised to the level of the post-emergence foliage canopy by setting the flats on a wooden block.
(§4) The degree of weed control was visually assessed and recorded as percentage control compared to the growth of the same species in an untreated check flat of the same age. The rating scale ranges from 0 to 100%, where 0 equals no effect with plant growth equal to the untreated control, and 100 equals complete kill.
(§5) Compounds 68 to 145 in Table I were tested generally similarly to Compounds No. 1 to 67 with the following differences: The rate of application was 2 lb/acre (2.24 kg/ha), no 6-day evaluations were made, and the weeds were:
Three broadleaf weeds: wild mustard, redroot pigweed (Amaranthus retroflexus) and curly dock (Rumex crispus).
(§6) Ratings were taken 2-3 weeks after treatment.

[8] = system: four grassy weeds: wild oat, watergrass, green foxtail and crabgrass; experiment: Pre-emergence herbicidal activity, grassy weeds (Table III); type: in vivo; conditions: 2.24 kg/ha, 2-3 weeks after treatment
Experimental: as §1, §2, §3, §4, §5
Four grassy weeds: wild oat, watergrass, green foxtail and crabgrass (Digitaria sanguinalis);
as §6

[9] = system: four grassy weeds: wild oat, watergrass, green foxtail and crabgrass; experiment: Post-emergence herbicidal activity, grassy weeds (Table III); type: in vivo; conditions: 2.24 kg/ha, 2-3 weeks after treatment
Summary of the method: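 Sprayed at 3.57 lb/A (4 kg/ha), some compounds at 2 lb/acre (2.24 kg/ha), from acetone–water with emulsifier; post-emergence flats seeded 12 days, pre-emergence flats 1 day before treatment. Visual % control versus untreated check (0 = no effect, 100 = complete kill), rated 2–3 weeks after treatment.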

[10] = system: three broadleaf weeds: wild mustard, redroot pigweed and curly dock; experiment: Post-emergence herbicidal activity, broadleaf weeds (Table III); type: in vivo, Brassica kaber, Amaranthus retroflexus, Rumex crispus; conditions: 2.24 kg/ha, 2-3 weeks after treatment
Summary of the method: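 Flats sprayed at 3.57 lb/A (4 kg/ha), or 2 lb/acre (2.24 kg/ha) for a later compound set, in 80 gal/A; pre-emergence flats seeded 1 day, post-emergence 12 days before treatment. Control visually scored 0-100% versus untreated flats, 2-3 weeks after treatment.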

SMILES | % Control, Post-emergence, BL avg. [1] | % Control, Post-emergence, NS [2] | % Control, Pre-emergence, BL avg. [3] | % Control, Pre-emergence, NS [4] | % Control, Pre-emergence, GR avg. [5] | % Control, Post-emergence, GR avg. [6] | % Control, Pre-Emergence, BL Avg. [7] | % Control, Pre-Emergence, GR Avg. [8] | % Control, Post-Emergence, GR Avg. [9] | % Control, Post-Emergence, BL Avg. [10]
CCCSP(=O)(N(CCC)CCC)N(C)c1ccc(Cl)cc1Cl (centres unmarked) [Compound 38] | 100% | 0% | 0% | 0% | 0% | 40% |  |  |  | 
CCCCN(CCCC)P(=O)(SCCC)N(CCCC)CCCC [Compound 7, S-n-propyl-tetra(n-butyl) phosphorodiamide] | 90% and 100% | 10% and 0% | 0% | 0% | 0% | 90% and 93% |  |  |  | 
CCCCN(CCCC)P(=O)(SCCC)N(C)c1ccc(Cl)cc1Cl (centres unmarked) [Compound 23] | 50% and 43% | 0% | 0% | 0% | 0% | 20% and 13% |  |  |  | 
CCCSP(=O)(N(CCC)CCC)N(C)c1ccc(Cl)c(Cl)c1 (centres unmarked) [Compound 20] | 50% and 67% | 5% and 0% | 0% | 0% | 0% | 20% and 13% |  |  |  | 
CCCSP(=O)(N(CCC)CCC)N(C)c1ccc(OC)cc1 (centres unmarked) [Compound 10] | 80% | 10% and 0% | 0% | 9% | 0% | 30% and 23% |  |  |  | 
CCCSP(=O)(N(CCC)CCC)N(C)c1cccnc1 (centres unmarked) [Compound 40] | 70% | 0% | 0% | 0% | 0% | 10% |  |  |  | 
CCCCN(CCCC)P(=O)(SCCC)N(C(C)C)C(C)C (centres unmarked) [Compound 28] |  | 0% | 0% | 0% | 0% | 10% and 7% |  |  |  | 
CCCN(CCC)P(=O)(Sc1ccccc1)N(CCC)CCC [Compound 63] | 80% and 91% | 0% | 3% | 0% | 0% | 60% and 43% |  |  |  | 
CCCSP(=O)(N(CCC)CCC)N(C)c1ccc(F)c(Cl)c1 (centres unmarked) [Compound 31] |  | 0% | 0% | 0% | 0% | 10% and 5% |  |  |  | 
CCCSP(=O)(N(CCC)CCC)N(C)c1ccccc1 (centres unmarked) [Compound 27] |  | 0% and 5% | 0% | 0% | 0% | 20% and 40% |  |  |  | 
CCCSP(=O)(N(CCC)CCC)N(C)c1ccc(Br)cc1C (centres unmarked) [Compound 39] | 93% | 80% | 0% | 0% | 0% | 67% |  |  |  | 
CCCSP(=O)(N(CC)CC)N(C(C)C)C(C)C (centres unmarked) [Compound 29] |  | 0% | 0% | 0% | 0% | 10% and 7% |  |  |  | 
CCCN(CCC)P(=O)(Sc1ccc(Cl)cc1)N(CCC)CCC [Compound 6] | 80% and 93% | 0% | 0% | 0% | 0% | 70% and 53% |  |  |  | 
CCCSP(=O)(N(CCC)CCC)N(C)c1ccc(F)cc1 (centres unmarked) [Compound 32] |  | 0% | 0% | 0% | 0% | 10% and 3% |  |  |  | 
CCCSP(=O)(N(CCC)CCC)N(C)c1cc(OC)cc(OC)c1 (centres unmarked) [Compound 43] |  | 0% | 0% | 0% | 0% | 10% |  |  |  | 
CCCCN(CCCC)P(=O)(SC(C)CC)N(CCC)CCC (centres unmarked) [Compound 127] |  |  |  |  |  |  | 0% | 0% | 59% | 99%
CCCN(CCC)P(=O)(SC(C)C)N(CCC)CCC [Compound 79] |  |  |  |  |  |  | 50% | 35% | 85% | 99%
CCCSP(=O)(N(CCC)CCC)N(C)c1ccccc1F (centres unmarked) [Compound 33] |  | 0% | 0% | 0% | 0% | 5% and 0% |  |  |  | 
CCCCN(CCCC)P(=O)(SCCC)N(CC)CC (centres unmarked) [Compound 85] |  |  |  |  |  |  | 10% | 12% | 89% | 99%
CCCN(CCC)P(=O)(SCC)N(CCC)CCC [Compound 70] |  |  |  |  |  |  | 10% | 5% | 82% | 99%
CCCCCSP(=O)(N(CCC)CCC)N(CCC)CCC [Compound 131] |  |  |  |  |  |  | 23% | 0% | 58% | 93%
CCCN(CCC)P(=O)(SC(C)(C)CC)N(CCC)CCC [Compound 81] |  |  |  |  |  |  | 0% | 0% | 66% | 83%
